The source of these data is patent US20240182531A1, “KV1.3 Blockers” (priority 2021, published 2024).

Several values for one entry are separate records, joined by “and”; a condition that tells them apart may be missing. Equal entries are not always repeated. Where two headings read alike, the source gives them in different places. Where a SMILES comes first, the peptide text is derived from it. Bridges are numbered along the chain shown (N, C = ends). [ ]: non-standard residue; d: D form. Nle = CCCC[C@H](N)C(=O)O

One experiment concerns the target Rat whole blood (Rattus norvegicus, UniProt P15384). The format is cell-based. To be noted: IL-17A release, thapsigargin, 24 Hr, at least 2 replicates.
The target in the next experiment is T1, human Kv1.2 (Homo sapiens, UniProt P16389).
T1 construct: expressed in transfected cells; host or cells: CHO
Briefly: cell-based. Particulars: ratio of patch clamp IC50 values.

In another experiment the target is T2, human Kv1.6 (Homo sapiens, UniProt P17658).
T2 construct: expressed in transfected cells; host or cells: CHO
The experiment can be described thus: cell-based. Particulars: ratio of patch clamp IC50 values.

Experiment [1] deals with Human peripheral blood mononuclear cells (PBMCs). The format is cell-based. To be noted: geometric mean, at least 6 replicates, Example 5b; read-out: anti-CD3 PBMC/IL-2 IC50. Here is the method: Human peripheral blood mononuclear cells (PBMCs) were used to assess the effects of Kv1.3 blocker reference compounds on T-cell activation as determined by IL-2 release after stimulation with anti-CD3.
Human PBMCs were obtained from Precision for Medicine (Frederick, MD). Cells from 5 donors were used. Plate-bound anti-CD3 was used to stimulate bulk T cells in the PBMC preparations. Briefly, 96-well plates were coated with anti-CD3 antibody for app. 16 hours at 5° C., using 50 μl of a 1 μg/ml anti-CD3 solution diluted in PBS. Thereafter the plates were washed twice.
Kv1.3 blockers were subsequently diluted in medium (RPMI 1640 with Glutamax-I containing, 10% v/v Fetal Bovine Serum, 1% v/v penicillin-streptomycin Solution) and added in a volume of 50 μl. The compounds indicated in Table 8b were used at concentrations ranging from 0.3 pM to 1000 nM (half log dilutions, starting concentrations varying).
Finally, 50.000 PBMCs in the same medium were added to each well in a volume of 50 μl, giving a final volume of 100 μl per well. The plates were incubated for 20-24 hours in a 37° C./5% CO2 incubator. After centrifugation of the plates, 25 μl supernatant was transferred to IL-2 detection plates (MSD Human IL-2 Tissue Culture Kit, cat #K151AHB-2) and IL-2 was measures as described by the manufacturer (Meso Scale Discovery, Rockville, Maryland, USA).
All values derive from at least 6 replicates.

The next experiment deals with T3, human Kv1.1 (Homo sapiens, UniProt Q09470).
T3 construct: expressed in transfected cells; host or cells: CHO
Briefly: cell-based. To be noted: ratio of patch clamp IC50 values.

For experiment [2], the system named is KLH ear inflammation model in rats. The format is in vivo, rat. Particulars: +/− SD.
The test system of experiment [3] is Human peripheral blood mononuclear cells (PBMCs). In kind it is cell-based. Particulars: geometric mean, at least 4 replicates, Example 5a; read-out: anti-CD3 PBMC/IL-2 IC50. On the procedure: Human peripheral blood mononuclear cells (PBMCs) were used to assess the effects of Kv1.3 blocker reference compounds on T-cell activation as determined by IL-2 (cytokine) release after stimulation with anti-CD3.
Human PBMCs were obtained from Precision for Medicine (Frederick, MD). Cells from 5 donors were used. Plate-bound anti-CD3 was used to stimulate bulk T cells in the PBMC preparations. Briefly, 96-well plates were coated with anti-CD3 antibody for 2 hrs at 37° C., using 50 μL of a 0.5 μg/mL anti-CD3 solution diluted in 1×PBS. Thereafter the plates were washed twice.
Kv1.3 blockers as shown in Table 8a were diluted in medium (RPMI 1640 with Glutamax-I containing 10% v/v Fetal Bovine Serum, 1% v/v penicillin-streptomycin solution) and added in a volume of 100 μL at concentrations ranging from 0.01 pM to 100 nM (tenfold dilutions). […] Finally, 1×10^5 PBMCs were added to each well in a volume of 100 μL, giving a final volume of 200 μL per well. The plates were incubated for 20-24 hours in a 37 °C/5% CO2 incubator. After centrifugation of the plates, 25 μl supernatant was transferred to IL-2 detection plates (MSD Human IL-2 Tissue Culture Kit, cat #K151AHB-2) and IL-2 was measures as described by the manufacturer (Meso Scale Discovery, Rockville, Maryland, USA).
Results are shown in Table 8a as geometric mean of IC50 values obtained from anti-CD3 stimulated human PBMC assays. All values derive from at least 4 replicates.

T2 sequence (P17658 whole entry): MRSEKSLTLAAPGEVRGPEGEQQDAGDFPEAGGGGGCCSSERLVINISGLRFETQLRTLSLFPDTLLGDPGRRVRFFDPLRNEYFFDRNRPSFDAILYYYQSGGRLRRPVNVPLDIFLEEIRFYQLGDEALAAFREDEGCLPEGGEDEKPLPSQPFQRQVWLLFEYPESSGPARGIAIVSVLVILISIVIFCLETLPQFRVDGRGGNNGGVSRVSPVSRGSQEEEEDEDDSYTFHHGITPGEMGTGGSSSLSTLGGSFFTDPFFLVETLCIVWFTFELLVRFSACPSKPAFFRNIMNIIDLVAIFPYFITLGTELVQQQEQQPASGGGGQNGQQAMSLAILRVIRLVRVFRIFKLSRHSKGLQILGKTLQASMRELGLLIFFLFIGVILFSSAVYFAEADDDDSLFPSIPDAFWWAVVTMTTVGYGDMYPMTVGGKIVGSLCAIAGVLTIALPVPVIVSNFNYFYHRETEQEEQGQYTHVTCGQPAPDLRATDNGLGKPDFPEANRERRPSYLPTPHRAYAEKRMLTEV
Chain of Rat whole blood (P15384 whole entry): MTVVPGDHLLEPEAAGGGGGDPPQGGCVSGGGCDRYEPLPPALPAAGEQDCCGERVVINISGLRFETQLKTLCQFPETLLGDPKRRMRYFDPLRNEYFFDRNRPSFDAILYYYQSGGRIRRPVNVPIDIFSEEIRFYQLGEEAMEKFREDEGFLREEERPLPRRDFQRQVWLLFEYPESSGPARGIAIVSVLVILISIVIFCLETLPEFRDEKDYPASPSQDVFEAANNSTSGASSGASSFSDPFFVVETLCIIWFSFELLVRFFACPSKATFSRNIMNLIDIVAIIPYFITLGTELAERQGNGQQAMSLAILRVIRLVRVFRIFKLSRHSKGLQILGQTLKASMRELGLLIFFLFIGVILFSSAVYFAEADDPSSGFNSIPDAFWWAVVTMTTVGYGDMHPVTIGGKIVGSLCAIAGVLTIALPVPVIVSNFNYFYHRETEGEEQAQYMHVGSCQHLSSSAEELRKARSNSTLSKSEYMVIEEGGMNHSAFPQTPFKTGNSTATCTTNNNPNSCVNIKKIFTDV
T3 sequence (Q09470 whole entry): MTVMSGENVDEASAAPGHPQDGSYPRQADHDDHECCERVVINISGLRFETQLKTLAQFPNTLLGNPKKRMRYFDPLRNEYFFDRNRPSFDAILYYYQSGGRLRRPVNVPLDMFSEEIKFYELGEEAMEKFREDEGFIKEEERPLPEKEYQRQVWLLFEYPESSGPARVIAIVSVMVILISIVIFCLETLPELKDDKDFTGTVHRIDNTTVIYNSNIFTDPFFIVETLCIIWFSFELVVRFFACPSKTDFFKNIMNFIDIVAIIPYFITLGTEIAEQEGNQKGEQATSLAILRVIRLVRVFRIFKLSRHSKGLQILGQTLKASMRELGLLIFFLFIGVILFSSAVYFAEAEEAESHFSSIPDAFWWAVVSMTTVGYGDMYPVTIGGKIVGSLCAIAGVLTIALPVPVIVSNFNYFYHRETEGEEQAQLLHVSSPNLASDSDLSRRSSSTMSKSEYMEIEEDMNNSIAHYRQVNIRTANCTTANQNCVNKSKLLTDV
T1 sequence (P16389 whole entry): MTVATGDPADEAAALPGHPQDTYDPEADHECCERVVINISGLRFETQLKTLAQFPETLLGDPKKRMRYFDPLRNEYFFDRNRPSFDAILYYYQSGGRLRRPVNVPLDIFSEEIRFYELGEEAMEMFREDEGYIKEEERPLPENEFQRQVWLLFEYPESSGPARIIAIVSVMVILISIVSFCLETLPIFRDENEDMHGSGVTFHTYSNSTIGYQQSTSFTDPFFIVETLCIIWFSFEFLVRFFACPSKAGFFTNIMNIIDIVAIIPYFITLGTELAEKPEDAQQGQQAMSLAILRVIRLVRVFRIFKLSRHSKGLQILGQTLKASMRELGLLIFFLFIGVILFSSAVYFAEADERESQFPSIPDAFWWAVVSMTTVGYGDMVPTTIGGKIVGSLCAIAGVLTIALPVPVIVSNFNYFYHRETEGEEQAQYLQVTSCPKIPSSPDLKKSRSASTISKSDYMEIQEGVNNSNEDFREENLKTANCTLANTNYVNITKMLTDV

“H-NMDMRCSASVECKQKCLKAIGSIFGKCMNKKCKCYPRRRTA-NH2 (disulfide 6-27, 12-32, 16-34) [compound 28]”: the values for the IC50 (against Rat whole blood; in experiment [1]) were 0.57 nM and 0.06 nM, respectively. Also, the “Selectivity ratio Kv1.2/Kv1.3” value at human Kv1.2 was 191. In addition, the “Selectivity ratio Kv1.6/Kv1.3” value on human Kv1.6 is listed as 1472. For the same compound, the “Selectivity ratio Kv1.1/Kv1.3” value on human Kv1.1 came to 4280.

As for `CCCC[C@H](NC(=O)[C@@H]1CCCN1)C(=O)N[C@@H](CC(=O)O)C(=O)N[C@@H](CCCC)C(=O)N[C@@H](CCCNC(=N)N)C(=O)N[C@H]1CSSC[C@@H]2NC(=O)[C@H](CCCCN)NC(=O)CNC(=O)[C@H](Cc3ccccc3)NC(=O)[C@H]([C@@H](C)CC)NC(=O)[C@H](CO)NC(=O)CNC(=O)[C@H]([C@@H](C)CC)NC(=O)[C@H](C)NC(=O)[C@H](CCCCN)NC(=O)[C@H](CC(C)C)NC(=O)[C@@H]3CSSC[C@@H](C(=O)N[C@@H](Cc4ccc(O)cc4)C(=O)N4CCC[C@H]4C(=O)N[C@@H](CCCNC(=N)N)C(N)=O)NC(=O)[C@H](CCCCN)NC(=O)[C@H](CSSC[C@H](NC(=O)[C@H](CCC(=O)O)NC(=O)[C@H](C(C)C)NC(=O)[C@H](CO)NC(=O)[C@H](C)NC(=O)[C@H](CO)NC1=O)C(=O)N[C@@H](CCCCN)C(=O)N[C@@H](CCC(N)=O)C(=O)N[C@@H](CCCCN)C(=O)N3)NC(=O)[C@H](CCCCN)NC(=O)[C@H](CCCCN)NC(=O)[C@H](CC(N)=O)NC(=O)[C@H](CCCC)NC2=O` [compound 45] (H-P[Nle]D[Nle]RCSASVECKQKCLKAIGSIFGKC[Nle]NKKCKCYPR-NH2; disulfide 6-27, 12-32, 16-34), the “% inhibition of ear thickness (AUC of Δ ear thickness 0-48 hours)” value is 22.2 (+/−11.1) % in experiment [2] (50 nmol/kg SC 24 hrs prior to KLH ear challenge); 46.9 (+/−10.9) % and 27.7 (+/−11.5) % in experiment [2] (70 nmol/kg SC 24 hrs prior to KLH ear challenge); 41.9 (+/−12.5) % in experiment [2] (100 nmol/kg SC 24 hrs prior to KLH ear challenge). Also, the IC50 on Rat whole blood was 0.98 nM; in experiment [1], 0.03 nM. Further, the “Selectivity ratio Kv1.2/Kv1.3” value at human Kv1.2 was 5362. Also, at human Kv1.6, the “Selectivity ratio Kv1.6/Kv1.3” value was greater than 17100. Further, the “Selectivity ratio Kv1.1/Kv1.3” value on human Kv1.1 was greater than 17100.

For the compound `CC[C@H](C)[C@@H]1NC(=O)[C@H](C)NC(=O)[C@H](CC(=O)O)NC(=O)[C@H](CC(C)C)NC(=O)[C@@H]2CSSC[C@@H](C(=O)N[C@@H](Cc3ccc(O)cc3)C(=O)N3CCC[C@H]3C(=O)N[C@@H](CCCNC(=N)N)C(N)=O)NC(=O)[C@H](CCCCN)NC(=O)[C@@H]3CSSC[C@H](NC(=O)[C@H](CCC(=O)O)NC(=O)[C@H](C(C)C)NC(=O)[C@H](CO)NC(=O)[C@H](C)NC(=O)[C@H](CO)NC(=O)[C@@H](NC(=O)[C@H](CCCNC(=N)N)NC(=O)[C@H](CCSC)NC(=O)[C@H](CC(=O)O)NC(=O)[C@H](CCSC)NC(=O)[C@@H](N)CC(N)=O)CSSC[C@H](NC(=O)[C@H](CCCCN)NC(=O)CNC(=O)[C@H](Cc4ccccc4)NC(=O)[C@H]([C@@H](C)CC)NC(=O)[C@H](CO)NC(=O)CNC1=O)C(=O)N[C@@H](CCSC)C(=O)N[C@@H](CC(N)=O)C(=O)N[C@@H](CCCCN)C(=O)N[C@@H](CCCCN)C(=O)N3)C(=O)N[C@@H](CCCCN)C(=O)N[C@@H](CCC(N)=O)C(=O)N[C@@H](CCCCN)C(=O)N2` [compound 25] (H-NMDMRCSASVECKQKCLDAIGSIFGKCMNKKCKCYPR-NH2; disulfide 6-27, 12-32, 16-34), the IC50 on Rat whole blood was 1.2 nM; in experiment [3], 0.1 nM. The “Selectivity ratio Kv1.2/Kv1.3” value on human Kv1.2 is reported as 471. Also, the “Selectivity ratio Kv1.6/Kv1.3” value on human Kv1.6 was found to be 12045. At human Kv1.1, the “Selectivity ratio Kv1.1/Kv1.3” value is recorded as greater than 14300.

For `CC[C@H](C)[C@@H]1NC(=O)[C@H](C)NC(=O)[C@H](CCCCN)NC(=O)[C@H](CC(C)C)NC(=O)[C@@H]2CSSC[C@@H](C(=O)N[C@@H](Cc3ccc(O)cc3)C(=O)N3CCC[C@H]3C(=O)N[C@@H](CCCNC(=N)N)C(=O)O)NC(=O)[C@H](CCCCN)NC(=O)[C@@H]3CSSC[C@H](NC(=O)[C@H](CCC(=O)O)NC(=O)[C@H](C(C)C)NC(=O)[C@H](CO)NC(=O)[C@H](C)NC(=O)[C@H](CO)NC(=O)[C@@H](NC(=O)[C@H](CCCNC(=N)N)NC(=O)[C@H](CCSC)NC(=O)[C@H](CC(=O)O)NC(=O)[C@H](CCSC)NC(=O)[C@@H](N)CCC(N)=O)CSSC[C@H](NC(=O)[C@H](CCCCN)NC(=O)CNC(=O)[C@H](Cc4ccccc4)NC(=O)[C@H]([C@@H](C)CC)NC(=O)[C@H](CO)NC(=O)CNC1=O)C(=O)N[C@@H](CCSC)C(=O)N[C@@H](CC(N)=O)C(=O)N[C@@H](CCCCN)C(=O)N[C@@H](CCCCN)C(=O)N3)C(=O)N[C@@H](CCCCN)C(=O)N[C@@H](CCC(N)=O)C(=O)N[C@@H](CCCCN)C(=O)N2` [compound 15] (H-QMDMRCSASVECKQKCLKAIGSIFGKCMNKKCKCYPR-OH; disulfide 6-27, 12-32, 16-34), the IC50 at Rat whole blood turned out to be 0.17 nM; in experiment [1], 0.09 nM. For the same compound, at human Kv1.2, the “Selectivity ratio Kv1.2/Kv1.3” value is 1364. Also, at human Kv1.6, the “Selectivity ratio Kv1.6/Kv1.3” value was greater than 7900. Besides, the “Selectivity ratio Kv1.1/Kv1.3” value on human Kv1.1 was greater than 7900.

Consider `CCCC[C@@H]1NC(=O)[C@@H]2CSSC[C@H](NC(=O)[C@H](CCCNC(=N)N)NC(=O)[C@H](CCCC)NC(=O)[C@H](CC(=O)O)NC(=O)[C@H](CCCC)NC(=O)[C@@H](N)CC(N)=O)C(=O)N[C@@H](CO)C(=O)N[C@@H](C)C(=O)N[C@@H](CO)C(=O)N[C@@H](C(C)C)C(=O)N[C@@H](CCC(=O)O)C(=O)N[C@H]3CSSC[C@H](NC(=O)[C@H](CCCCN)NC(=O)[C@H](CCCCN)NC(=O)[C@H](CC(N)=O)NC1=O)C(=O)N[C@@H](CCCCN)C(=O)N[C@H](C(=O)N[C@@H](Cc1ccc(O)cc1)C(=O)N1CCC[C@H]1C(=O)N[C@@H](CCCNC(=N)N)C(N)=O)CSSC[C@H](NC(=O)[C@H](CO)NC(=O)[C@H](CCC(N)=O)NC(=O)[C@H](CCCCN)NC3=O)C(=O)N[C@@H](CC(C)C)C(=O)N[C@@H](CCCCN)C(=O)N[C@@H](C)C(=O)N[C@@H]([C@@H](C)CC)C(=O)NCC(=O)N[C@@H](CO)C(=O)N[C@@H]([C@@H](C)CC)C(=O)N[C@@H](Cc1ccccc1)C(=O)NCC(=O)N[C@@H](CCCCN)C(=O)N2` [compound 52] (H-N[Nle]D[Nle]RCSASVECKQSCLKAIGSIFGKC[Nle]NKKCKCYPR-NH2; disulfide 6-27, 12-32, 16-34), for which the IC50 turned out to be 0.63 nM at Rat whole blood and 0.07 nM in experiment [1]. Besides, the “Selectivity ratio Kv1.2/Kv1.3” value on human Kv1.2 is reported as greater than 8200. The “Selectivity ratio Kv1.6/Kv1.3” value on human Kv1.6 is greater than 8200. The “Selectivity ratio Kv1.1/Kv1.3” value at human Kv1.1 was greater than 8200.
